# Test results reported in patent US8962856B2, “Modulators of cystic fibrosis transmembrane conductance regulator” (Vertex Pharmaceuticals Incorporated, priority 2005, dated 2015).
# Biological target: T1, ΔF508-CFTR (Homo sapiens, UniProt P13569, DEL508-508)
# T1 construct: expressed in transfected cells
# Experiment: Membrane potential optical assay for ΔF508-CFTR correction
# Format: cell-based
# Conditions: not given
# Excerpt: Assays for Detecting and Measuring ΔF508-CFTR Correction Properties of Compounds
# I) Membrane Potential Optical Methods for Assaying ΔF508-CFTR Modulation Properties of Compounds
# The optical membrane potential assay utilized voltage-sensitive FRET sensors described by Gonzalez and Tsien (See Gonzalez, J. E. and R. Y. Tsien (1995) “Voltage sensing by fluorescence resonance energy transfer in single cells” Biophys J 69(4): 1272-80, and Gonzalez, J. E. and R. Y. Tsien (1997) “Improved indicators of cell membrane potential that use fluorescence resonance energy transfer” Chem Biol 4(4): 269-77) in combination with instrumentation for measuring fluorescence changes such as the Voltage/Ion Probe Reader (VIPR) (See, Gonzalez, J. E., K. Oades, et al. (1999) “Cell-based assays and instrumentation for screening ion-channel targets” Drug Discov Today 4(9): 431-439).
# These voltage sensitive assays are based on the change in fluorescence resonant energy transfer (FRET) between the membrane-soluble, voltage-sensitive dye, DiSBAC2(3), and a fluorescent phospholipid, CC2-DMPE, which is attached to the outer leaflet of the plasma membrane and acts as a FRET donor. Changes in membrane potential (Vm) cause the negatively charged DiSBAC2(3) to redistribute across the plasma membrane and the amount of energy transfer from CC2-DMPE changes accordingly. The changes in fluorescence emission were monitored using VIPR™ II, which is an integrated liquid handler and fluorescent detector designed to conduct cell-based screens in 96- or 384-well microtiter plates.
# NIH3T3 mouse fibroblasts stably expressing ΔF508-CFTR are used for optical measurements of membrane potential. The cells are maintained at 37° C. in 5% CO2 and 90% humidity in Dulbecco's modified Eagle's medium supplemented with 2 mM glutamine, 10% fetal bovine serum, 1×NEAA, β-ME, 1× pen/strep, and 25 mM HEPES in 175 cm^2 culture flasks. For all optical assays, the cells were seeded at 30,000/well in 384-well matrigel-coated plates and cultured for 2 hrs at 37° C. before culturing at 27° C. for 24 hrs. for the potentiator assay. For the correction assays, the cells are cultured at 27° C. or 37° C. with and without compounds for 16-24 hoursB) Electrophysiological Assays for assaying ΔF508-CFTR modulation properties of compounds
# T1 sequence (P13569 with tags, fused parts or gaps DEL508-508): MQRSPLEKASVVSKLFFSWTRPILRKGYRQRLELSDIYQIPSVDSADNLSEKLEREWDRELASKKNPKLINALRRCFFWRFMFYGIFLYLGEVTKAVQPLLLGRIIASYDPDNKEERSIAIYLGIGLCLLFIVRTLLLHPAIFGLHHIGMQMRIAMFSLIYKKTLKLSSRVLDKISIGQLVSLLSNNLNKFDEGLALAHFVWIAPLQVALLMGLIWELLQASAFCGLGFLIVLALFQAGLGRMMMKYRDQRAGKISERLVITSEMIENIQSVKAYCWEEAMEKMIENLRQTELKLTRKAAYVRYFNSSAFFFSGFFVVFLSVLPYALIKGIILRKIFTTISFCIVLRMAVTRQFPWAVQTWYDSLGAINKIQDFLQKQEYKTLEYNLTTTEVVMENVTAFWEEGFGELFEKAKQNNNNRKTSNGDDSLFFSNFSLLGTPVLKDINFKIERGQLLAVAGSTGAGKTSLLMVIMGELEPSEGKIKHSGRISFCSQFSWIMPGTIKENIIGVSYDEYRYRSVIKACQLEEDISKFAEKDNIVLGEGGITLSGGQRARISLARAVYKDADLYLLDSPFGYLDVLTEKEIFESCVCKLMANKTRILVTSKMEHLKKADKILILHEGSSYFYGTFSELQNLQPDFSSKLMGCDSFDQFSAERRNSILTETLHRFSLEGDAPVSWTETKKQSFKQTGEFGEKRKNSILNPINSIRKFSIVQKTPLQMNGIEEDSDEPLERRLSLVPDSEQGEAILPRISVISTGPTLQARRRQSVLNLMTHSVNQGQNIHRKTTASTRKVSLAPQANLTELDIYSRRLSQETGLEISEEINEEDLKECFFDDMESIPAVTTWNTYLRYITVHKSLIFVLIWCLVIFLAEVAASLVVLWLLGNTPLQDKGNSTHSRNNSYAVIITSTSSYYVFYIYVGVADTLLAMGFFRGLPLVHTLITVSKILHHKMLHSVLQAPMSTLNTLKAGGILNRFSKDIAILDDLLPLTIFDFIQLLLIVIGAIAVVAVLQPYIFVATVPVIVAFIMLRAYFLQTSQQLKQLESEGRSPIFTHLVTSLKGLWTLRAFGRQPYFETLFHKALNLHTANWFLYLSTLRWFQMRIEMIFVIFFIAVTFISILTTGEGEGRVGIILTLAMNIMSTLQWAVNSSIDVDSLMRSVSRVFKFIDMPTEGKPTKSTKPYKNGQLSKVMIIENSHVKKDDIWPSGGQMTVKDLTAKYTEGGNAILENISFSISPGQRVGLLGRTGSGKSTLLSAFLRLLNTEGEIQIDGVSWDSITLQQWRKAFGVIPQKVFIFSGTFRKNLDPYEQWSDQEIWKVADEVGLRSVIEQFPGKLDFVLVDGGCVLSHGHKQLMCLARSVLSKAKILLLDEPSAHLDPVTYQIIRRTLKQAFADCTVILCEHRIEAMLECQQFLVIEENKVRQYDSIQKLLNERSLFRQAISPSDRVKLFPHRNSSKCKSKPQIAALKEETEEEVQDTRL
row,Compound,EC50
1,Cc1nc(NC(=O)C2(c3ccc4c(c3)OC(F)(F)O4)CC2)sc1[C@H](c1ccccc1Cl)N1CC[C@H](O)C1 [Compound 10],< 2000 nM
2,O=C(Nc1ncc([C@H](c2ccccc2Cl)N2CC[C@@H](O)C2)s1)C1(c2ccc3c(c2)OC(F)(F)O3)CC1 [Compound 11],< 2000 nM
3,O=C(Nc1ncc([C@@H](c2ccccc2Cl)N2CC[C@@H](O)C2)s1)C1(c2ccc3c(c2)OCO3)CC1 [Compound 13],< 2000 nM
4,"1-(Benzo[d][1,3]dioxol-6-yl)-N-(5-((R)-(2-chlorophenyl)((R)-3-hydroxypyrrolidin-1-yl)methyl)thiazol-2-yl)cyclopropanecarboxamide [Compound 2]",2000 to 20000 nM
5,"1-(Benzo[d][1,3]dioxol-6-yl)-N-(5-((S)-(2-chlorophenyl)((R)-3-hydroxypyrrolidin-1-yl)methyl)thiazol-2-yl)cyclopropanecarboxamide [Compound 1]",< 2000 nM
6,Cc1nc(NC(=O)C2(c3ccc4c(c3)OC(F)(F)O4)CC2)sc1[C@@H](c1ccccc1Cl)N1CC[C@H](O)C1 [Compound 9],< 2000 nM

# Further lines, results first:
row,EC50,Compound
1,< 2000 nM,O=C(Nc1ncc([C@H](c2ccc(Cl)c(Cl)c2)N2CC[C@@H](O)C2)s1)C1(c2ccc3c(c2)OCO3)CC1 [Compound 5]
2,< 2000 nM,Cc1nc(NC(=O)C2(c3ccc4c(c3)OCO4)CC2)sc1[C@H](c1ccccc1Cl)N1CC[C@H](O)C1 [Compound 8]
3,< 2000 nM,O=C(Nc1ncc([C@@H](c2ccc(Cl)c(Cl)c2)N2CC[C@@H](O)C2)s1)C1(c2ccc3c(c2)OCO3)CC1 [Compound 6]
4,< 2000 nM,O=C(Nc1ncc([C@H](c2ccc(Cl)cc2F)N2CC[C@@H](O)C2)s1)C1(c2ccc3c(c2)OCO3)CC1 [Compound 3]
5,< 2000 nM,Cc1nc(NC(=O)C2(c3ccc4c(c3)OCO4)CC2)sc1[C@@H](c1ccccc1Cl)N1CC[C@H](O)C1 [Compound 7]
6,< 2000 nM,O=C(Nc1ncc([C@H](c2ccc(Cl)cc2F)N2CC[C@@H](O)C2)s1)C1(c2ccc3c(c2)OC(F)(F)O3)CC1 [Compound 4]
7,< 2000 nM,O=C(Nc1ncc([C@H](c2ccccc2Cl)N2CC[C@@H](O)C2)s1)C1(c2ccc3c(c2)OCO3)CC1 [Compound 12]

# Same assay, conditions: relative efficacy
Compound,Emax,% Efficacy
Cc1nc(NC(=O)C2(c3ccc4c(c3)OC(F)(F)O4)CC2)sc1[C@H](c1ccccc1Cl)N1CC[C@H](O)C1 [Compound 10],> 100%,
O=C(Nc1ncc([C@@H](c2ccccc2Cl)N2CC[C@@H](O)C2)s1)C1(c2ccc3c(c2)OCO3)CC1 [Compound 13],> 100%,
"1-(Benzo[d][1,3]dioxol-6-yl)-N-(5-((R)-(2-chlorophenyl)((R)-3-hydroxypyrrolidin-1-yl)methyl)thiazol-2-yl)cyclopropanecarboxamide [Compound 2]",,+++ (“+++” means >100%)
"1-(Benzo[d][1,3]dioxol-6-yl)-N-(5-((S)-(2-chlorophenyl)((R)-3-hydroxypyrrolidin-1-yl)methyl)thiazol-2-yl)cyclopropanecarboxamide [Compound 1]",,+++ (“+++” means >100%)
Cc1nc(NC(=O)C2(c3ccc4c(c3)OC(F)(F)O4)CC2)sc1[C@@H](c1ccccc1Cl)N1CC[C@H](O)C1 [Compound 9],> 100%,

# More lines, now with the values ahead:
Emax,% Efficacy,Compound
> 100%,,O=C(Nc1ncc([C@H](c2ccc(Cl)c(Cl)c2)N2CC[C@@H](O)C2)s1)C1(c2ccc3c(c2)OCO3)CC1 [Compound 5]
> 100%,,O=C(Nc1ncc(C(c2ccccc2Cl)N2CC[C@@H](O)C2)s1)C1(c2ccc3c(c2)OC(F)(F)O3)CC1 (some centres unmarked) [Compound 11]
> 100%,,Cc1nc(NC(=O)C2(c3ccc4c(c3)OCO4)CC2)sc1[C@H](c1ccccc1Cl)N1CC[C@H](O)C1 [Compound 8]
> 100%,,O=C(Nc1ncc([C@@H](c2ccc(Cl)c(Cl)c2)N2CC[C@@H](O)C2)s1)C1(c2ccc3c(c2)OCO3)CC1 [Compound 6]
> 100%,,O=C(Nc1ncc([C@H](c2ccc(Cl)cc2F)N2CC[C@@H](O)C2)s1)C1(c2ccc3c(c2)OCO3)CC1 [Compound 3]
> 100%,,Cc1nc(NC(=O)C2(c3ccc4c(c3)OCO4)CC2)sc1[C@@H](c1ccccc1Cl)N1CC[C@H](O)C1 [Compound 7]
> 100%,,O=C(Nc1ncc([C@H](c2ccc(Cl)cc2F)N2CC[C@@H](O)C2)s1)C1(c2ccc3c(c2)OC(F)(F)O3)CC1 [Compound 4]
25 to 100%,,O=C(Nc1ncc([C@H](c2ccccc2Cl)N2CC[C@@H](O)C2)s1)C1(c2ccc3c(c2)OCO3)CC1 [Compound 12]
